Results taken from patent US11638713B2, “Patentiflorin A analogs as antiviral agents” (priority 2019, dated 2023).
pEC50: −log10 of the molar value.

What was measured:
in vitro = conditions: human
HIV = experiment: microbe, parasite or virus in culture; assay type: cell-based; conditions: for pEC50: Human immunodeficiency virus 1, A549
EBOV (Ebola virus) = experiment: microbe, parasite or virus in culture; assay type: cell-based; conditions: Zaire ebolavirus; for pEC50: A549, read-out: EC50 against EBOV; for inhibition at 0.0125 µg/mL: 12.5 ng/mL; for inhibition at 0.05 µg/mL: 50 ng/mL
[1] = test system: VSV (vesicular stomatitis virus); experiment: microbe, parasite or virus in culture; assay type: cell-based; conditions: for pEC50: A549, read-out: EC50 against VSV; for inhibition at 0.0125 µg/mL: A549, 12.5 ng/mL; for inhibition at 0.05 µg/mL: A549, 50 ng/mL
H5N1 virus = experiment: microbe, parasite or virus in culture; assay type: cell-based, H5N1 influenza virus; conditions: for inhibition at 0.0125 µg/mL: H5N1, A549, 12.5 ng/mL; for inhibition at 0.05 µg/mL: H5N1, A549, 50 ng/mL; for inhibition at 0.25 µg/mL: H5N1, A549, 250 ng/mL; for pEC50: H5N1, A549, read-out: EC50 against H5N1 virus
A549 cells = experiment: cells; conditions: Homo sapiens, A549, read-out: % Inhibition against A549 cells
[2] = CC50 against the host cell line A549
[3] = Influenza A virus, read-out: % Inhibition against H5N1 virus
[4] = A549, read-out: % Inhibition against EBOV
[5] = read-out: % Inhibition against VSV

| SMILES | CC50 (in vitro; CC50 (nM)) [nM] | pEC50 (HIV) | CC50 (in vitro; [2]) [nM] | pEC50 (EBOV (Ebola virus)) | pEC50 [1] | inhibition at 0.0125 µg/mL (H5N1 virus; [3]) [%] | inhibition at 0.05 µg/mL (H5N1 virus; [3]) [%] | inhibition at 0.25 µg/mL (H5N1 virus; [3]) [%] | pEC50 (H5N1 virus; Influenza A virus) | inhibition at 0.05 µg/mL (EBOV (Ebola virus); [4]) [%] | inhibition at 0.05 µg/mL [1, 5] [%] | % Inhibition against H5N1 virus (H5N1 virus; 50 ng/mL) [%] | inhibition at 0.05 µg/mL (A549 cells) [%] | further results |
| --- | --- | --- | --- | --- | --- | --- | --- | --- | --- | --- | --- | --- | --- | --- |
| C=CCOC(=O)O[C@H]1[C@H](O)[C@@H](OC(=O)OCC=C)C(Oc2c3c(c(-c4ccc5c(c4)OCO5)c4cc(OC)c(OC)cc24)C(=O)OC3)O[C@@H]1C (stereo partly drawn) [Compound 29b, 2″,4″-O-diallyl oxycarbonyl-7-O-β-D-patentiflorin A] | 187 | 8.33 | – | – | – | – | – | – | – | – | – | – | – | – |
| C=CCOC(=O)O[C@@H]1COC(Oc2c3c(c(-c4ccc5c(c4)OCO5)c4cc(OC)c(OC)cc24)C(=O)OC3)[C@H](OC(=O)OCC=C)[C@H]1OC(=O)N(C)C (stereo partly drawn) [Compound 30a, 2″,4″-O-diallyl oxycarbonyl-3″-O-dimethylcarbamyl-7-O-β-D-xylosyldiphyllin] | 145 | – | 35.2 | 8.74 | 8.07 | 44.1 | 95.7 | 97.6 | 8.41 | – | – | – | – | – |
| COc1cc2c(OC3OC[C@@H](O)[C@H](OC(=O)N(C)C)[C@H]3O)c3c(c(-c4ccc5c(c4)OCO5)c2cc1OC)C(=O)OC3 (stereo partly drawn) [Compound 31a, 3″-O-dimethylcarbamyl-7-O-β-D-xylosyldiphyllin] | 55.8 | – | – | – | – | 87.9 | 94.4 | 97.6 | – | – | – | – | – | inhibition at 1 µg/mL (EBOV (Ebola virus); A549, 1000 ng/mL, read-out: % Inhibition against EBOV): 81.8%; inhibition at 5 µg/mL (EBOV (Ebola virus); A549, 5000 ng/mL, read-out: % Inhibition against EBOV): 95.2%; inhibition at 1 µg/mL ([1]; A549, 1000 ng/mL, read-out: % Inhibition against VSV): 80.4%; inhibition at 5 µg/mL ([1]; A549, 5000 ng/mL, read-out: % Inhibition against VSV): 99.6%; inhibition at 1 µg/mL (H5N1 virus; Influenza A virus, H5N1, A549, 1000 ng/mL, read-out: % Inhibition against H5N1 virus): 94.7%; inhibition at 5 µg/mL (H5N1 virus; Influenza A virus, H5N1, A549, 5000 ng/mL, read-out: % Inhibition against H5N1 virus): 98.4%; inhibition at 1 µg/mL (A549 cells): 47.5%; inhibition at 5 µg/mL (A549 cells): 99.8% |
| COc1cc2c(OC3O[C@H](C)[C@@H](O)[C@H](OC(=O)c4cc([N+](=O)[O-])cc([N+](=O)[O-])c4)[C@H]3O)c3c(c(-c4ccc5c(c4)OCO5)c2cc1OC)C(=O)OC3 (stereo partly drawn) [Compound 31b, 3″-O-(3,5-dinitrobenzoyl)-7-O-β-D-patentiflorin A] | 684 | 7.87 | – | – | – | – | – | – | – | – | – | – | – | – |
| CCCC(=O)O[C@H]1[C@H](O)[C@@H](C)OC(Oc2c3c(c(-c4ccc5c(c4)OCO5)c4cc(OC)c(OC)cc24)C(=O)OC3)[C@@H]1O (stereo partly drawn) [Compound 31c, 3″-O-butyryl-7-O-β-D-patentiflorin A] | 13.4 | 10.52 | – | – | – | – | – | – | – | – | – | – | – | anti-HIV activity in terms of SI values (HIV): much more improved anti-HIV activity |
| COc1cc2c(OC3O[C@H](C)[C@@H](O)[C@H](OC(=O)c4ccccc4)[C@H]3O)c3c(c(-c4ccc5c(c4)OCO5)c2cc1OC)C(=O)OC3 (stereo partly drawn) [Compound 31d, 3″-O-benzoyl-7-O-β-D-patentiflorin A] | > 63 | 8.87 | – | – | – | – | – | – | – | – | – | – | – | – |
| COc1cc2c(OC3O[C@H](C)[C@@H](O)[C@H](OC(=O)c4ccc(N(C)C)cc4)[C@H]3O)c3c(c(-c4ccc5c(c4)OCO5)c2cc1OC)C(=O)OC3 (stereo partly drawn) [Compound 31e, 3″-O-p-dimethylaminobenzoyl-7-O-β-D-patentiflorin A] | 17.7 | 8.62 | 17.7 | 8.95 | 8.62 | 98.1 | 97.9 | 98.4 | 9.13 | 86.5 | 86.3 | 96.5 | 66.8 | inhibition at 0.0125 µg/mL (EBOV (Ebola virus); [4]): 77.5%; inhibition at 0.0125 µg/mL [1, 5]: 77.4%; % Inhibition against H5N1 virus (H5N1 virus; 12.5 ng/mL): 95.4%; inhibition at 0.0125 µg/mL (A549 cells): 53.1% |
| COc1cc2c(OC3O[C@H](C)[C@@H](O)[C@H](OC(=O)C4CC4)[C@H]3O)c3c(c(-c4ccc5c(c4)OCO5)c2cc1OC)C(=O)OC3 (stereo partly drawn) [Compound 31g, 3″-O-cyclopropanecarbonyl-7-O-4i-D-patentiflorin A] | 26.7 | – | – | – | – | 97.9 | 97.9 | 98.1 | – | 90.9 | 95.7 | 89.0 | 54.6 | inhibition at 0.01 µg/mL (EBOV (Ebola virus); A549, 10 ng/mL, read-out: % Inhibition against EBOV): 79.1%; inhibition at 0.01 µg/mL ([1]; A549, 10 ng/mL, read-out: % Inhibition against VSV): 63.3%; inhibition at 0.01 µg/mL (H5N1 virus; Influenza A virus, H5N1, A549, 10 ng/mL, read-out: % Inhibition against H5N1 virus): 78.9%; inhibition at 0.01 µg/mL (A549 cells): 11% |
| COc1cc2c(OC3OC[C@@H](O)[C@H](OCc4ccccc4)[C@H]3O)c3c(c(-c4ccc5c(c4)OCO5)c2cc1OC)C(=O)OC3 (stereo partly drawn) [Compound 31l, 3″-O-benzyl-7-O-β-D-xylosyldiphyllin] | – | – | 4.85 | 9.72 | 9.43 | 82.8 | 96 | 96.8 | 10.89 | 94.2 | 98.4 | 95.6 | 82.1 | inhibition at 0.0125 µg/mL (EBOV (Ebola virus); [4]): 86.4%; inhibition at 0.0125 µg/mL [1, 5]: 88.7%; % Inhibition against H5N1 virus (H5N1 virus; 12.5 ng/mL): 95.1%; inhibition at 0.0125 µg/mL (A549 cells): 52% |
| CN(C)CCOc1ccc(/C(=C(/CCCl)c2ccccc2)c2ccccc2)cc1 [Toremifene, toremifene, reference compound] | – | – | – | 6.67 | – | – | – | – | – | – | – | – | – | inhibition at 0.5 µg/mL (EBOV (Ebola virus); A549, 500 ng/mL, read-out: % Inhibition against EBOV): 93.6%; inhibition at 0.5 µg/mL ([1]; A549, read-out: % Inhibition against VSV): 6.58%; inhibition at 0.5 µg/mL (H5N1 virus; Influenza A virus, H5N1, A549, 500 ng/mL, read-out: % Inhibition against H5N1 virus): 28.4%; inhibition at 0.5 µg/mL (A549 cells): -15.1% |
